From patent publication US5817840A, “Water soluble taxol derivatives” (The Scripps Research Institute, priority 1997, dated 1998)
Entries after “also recorded” stand apart in the source; their conditions may differ.

Key:
[1] = test system: RPMI-7666 (normal human PBLs); test: Cytotoxicity (sulphorhodamine B), normal cell line, Table 1B; type: cell-based; conditions: 72 h
Procedure: (§1) The cytotoxicities were determined using the sulphorhodamine B assay method (Skehan, P. et al. J. Nat. Canc. Inst. 82, 1107 (1990)).

SK (melanoma) = test: Cytotoxicity (sulphorhodamine B), cancer cell line, Table 1B; type: cell-based; conditions: 72 h
Procedure: as §1

tubulin / microtubules = test: Tubulin polymerization-depolymerization (CaCl2-induced depolymerization of microtubules); type: biochemical; conditions: 10^-6 M, 1.0 mg/mL tubulin
Procedure: Tubulin polymerization to microtubules is promoted by GTP, whereas CaCl2 causes depolymerization of microtubules back to tubulin (FIG. 3A). […] The designed protaxol 5 was tested for its ability to stabilize microtubules formed from tubulin via the action of GTP. […] These findings are in agreement with the previously reported loss of activity resulting from blocking the C-2' hydroxyl group.
Tubulin polynerization-depolymerization experiments with taxol and designed protaxol 5 are illustrated in FIG. 3. CaCl2 -promoted depolymerization of microtubules was suppressed by taxol and protaxol 5 (after taxol release).
These measurements may be conducted at 37° C. following a recently developed procedure described by R. Merlock and W. Wrasidlo (Analytical Biochemistry, 1993). In each case 1.0 mM GTP may be employed to promote initial polymerization of tubulin.
D: Tubulin (1.0 mg/mL) with protaxol 5 (10^-6 M) after release of taxol (as determined by HPLC, essentially quantitative conversion).

[2] = Water solubility in D2O by 1H NMR; conditions: compared to taxol
Procedure: The solubilities of the synthesized protaxols in D2 O were determined by 1H NMR spectroscopy.
The resulting mixture was centrifuged for 20 minutes and the supernatant saturated solution was analysed by ^1 H NMR spectroscopy using a Bruker AMX-400 instrument and methanol or pyridine as internal standard. The concentration of the compound was determined by comparing several signals with the CH3 signal of methanol or the NCH signal of pyridine.

[3] = test system: 786-0 (renal cell carcinoma); test: Cytotoxicity (sulphorhodamine B), cancer cell line, Table 1B; type: cell-based; conditions: Homo sapiens, 786-0, 72 h
Procedure: as §1

NHDF (normal human skin) = test: Cytotoxicity (sulphorhodamine B), normal cell line, Table 1B; type: cell-based; conditions: 72 h
Procedure: as §1

HT-29 (colon carcinoma) = test: Cytotoxicity (sulphorhodamine B), cancer cell line, Table 1B; type: cell-based; conditions: Homo sapiens, HT-29, 72 h
Procedure: as §1

[4] = Stability in aqueous media, aprotic organic solvents and solid state; type: physicochemical; conditions: aqueous media / pH 7.0 buffer / 20° C.
From the text: The derivatives in which the C-7 hydroxyl group was acetylated were extremely unstable in aqueous media losing the C-7 substituent very rapidly. The stability of the synthesized compounds was examined at various pH's and temperatures. […] Table 1A includes the half-lives of six of these compounds at pH 7.5 and 9. […] This illustrates the ability to fine-tune the rate of release of taxol to a desired set of conditions using simple chemical principles.

MCF-7 (breast carcinoma) = test: Cytotoxicity (sulphorhodamine B), cancer cell line, Table 1B; type: cell-based; conditions: Homo sapiens, MCF7, 72 h
Procedure: as §1

Capan-1 (pancreatic) = test: as above; type: cell-based; conditions: Homo sapiens, CAPAN-1, 72 h
Procedure: as §1

[5] = test system: PC-3 (prostate carcinoma); test: as above; type: cell-based; conditions: Homo sapiens, 72 h
Procedure: as §1

[6] = test system: CHO (normal human mammary); test: Cytotoxicity (sulphorhodamine B), normal cell line, Table 1B; type: cell-based; conditions: Homo sapiens, 72 h

CC(=O)O[C@H]1C(=O)[C@@]2(C)[C@H]([C@H](OC(=O)c3ccccc3)[C@]3(O)C[C@H](OC(=O)[C@H](OC(=O)CS(=O)(=O)CC(=O)O)[C@@H](NC(=O)c4ccccc4)c4ccccc4)C(C)=C1C3(C)C)[C@]1(OC(C)=O)CO[C@@H]1C[C@@H]2O [Compound 5]
IC50 [1]: 100 µM
IC50 (SK (melanoma)): 10 µM
prevention of CaCl2-induced depolymerization of microtubules (tubulin / microtubules; CaCl2 0.25 mM after 16 minutes, 37° C., initial, no prior release): failed to prevent CaCl2-induced disassembly of microtubules; also recorded: caused depolymerization of microtubules
prevention of CaCl2-induced depolymerization of microtubules after taxol release (tubulin / microtubules; after prolonged exposure / release of taxol): reached potencies comparable to that of taxol; also recorded: suppressed
Water solubility (in words) [2]: good solubility
IC50 [3]: 1 µM
IC50 (NHDF (normal human skin)): 1 µM
IC50 (HT-29 (colon carcinoma)): < 0.001 µM
stability in aqueous media [4]: good solubility and stability properties in aqueous media; also recorded: quite stable
IC50 (MCF-7 (breast carcinoma)): 10 µM
IC50 (Capan-1 (pancreatic)): < 0.001 µM
IC50 [5]: 1 µM
IC50 [6]: 100 µM
